# Measured values as given in patent publication US10730840B2, “Substituted tetrahydroisoquinoline ethylbenzamide anti-cancer agents” (Florida A&M University, priority 2017, dated 2020).
# What was measured:
# [1] = test system: MCF-7, MDA-MB-231, and Ishikawa cell lines; test: Antiproliferative activity, summary statements over the three cell lines; type: cell-based, human; conditions: MCF-7, MDA-MB-231 and Ishikawa cell lines together
# Description: (§1) Numerous substituted THIQs were systematically synthesized employing molecular design and structure activity relationship studies (Suresh et al., (2014) Lett. Drug Design & Discov. 11: 428-436; Gangapuram et al., (2014) J. Cancer Sci. Ther. 6: 161-169). The compounds' cytotoxic effects on MCF-7 (estrogen receptor positive breast cancer) cell lines, MDA-MB-231 (estrogen receptor negative breast cancer) cell lines and Ishikawa cell lines using CellTiter-Glo (CTG) luminescent cell viability essay were studied. The tests were done on different concentrations of the compounds ranging from 0.01 to 100,000 nM on 5000 MCF-7 cells/well, on 5000 MDA-MB-231 cells/well and on 5000 Ishikawa cells/well. Drug exposed cells were incubated at 37° C. for three days followed by CTG assay. Then IC50 values were generated from Graph Pad Prism 4.
# (§2) Chemistry: Several substituted tetrahydroisoquinolines 2d-2m, 3h, 3k, 3l, and 4a-4f were prepared according to three different procedures as shown in Schemes 1, 2 and 3 (FIGS. 2-4). […] The aminating agent 10 was prepared using a reported procedure (Tamura et al., (1972) J. Org. Chem. 40: 4133-4135). The amino salts of ring substituted 2-aminoisoquinolinium mesitylenesulfonates of general structure 11 used in the present study were prepared by the reaction of substituted isoquinolines and the aminating agent 10 as previously reported (Gangapuram et al., (2014) J. Cancer Sci. Ther. 6: 161-169). […] The aminating agent 13 was prepared using a reported procedure (Legault & Charette (2003) J. Org. Chem. 68: 7119-7122). The amino salts of ring substituted 2-aminoisoquinolinium compounds of general structure 14 were obtained with the reaction of the substituted isoquinolines and the aminating agent 13 in CH3CN heated at 50° C. for 24 hours. Without further purification, the salts were used to prepare the N-ylides by reaction with substituted acyl/sulfonyl chlorides. […] N-Oxidation of commercially available ring substituted THIQs followed by the reduction of the NO group using standard zinc/acetic acid led to the synthesis of N-amino THIQs.
# (§3) The antiproliferative activities of substituted tetrahydroisoquinolines 2a-2m, 3a-3l and 4a-4f were evaluated according to the procedure reported previously (Crouch et al., (1993) J. Immunol. Methods 160: 81-88).
# (§4) Human MCF-7 and MDA-MB-231 breast cancer cell lines were purchased from the NCI. The human Ishikawa endometrial cancer cell line was purchased from Sigma Aldrich. All three cell lines were cultured in phenol red-free RPMI-1640 (Hyclone) (500 mL) supplemented with L-glutamine-dipeptide (Hyclone) (5 mL), and 10% fetal bovine serum (Atlanta Biologicals) (50 mL).
# (§5) The cell lines were cultured and treated with compounds under study including the standard TAM ranging from 0.01 nM to 100,000 nM concentration in the presence of 10 nM estradiol using the previous reported method (Suresh et al., (2014) Lett. Drug Des. Discov. 11: 428-436).
# [2] = test system: MCF-7 (ER positive breast cancer cell line); test: CellTiter-Glo antiproliferative activity, MCF-7 cell line; type: cell-based, human; conditions: for IC50: Homo sapiens, MCF7, Table 1, read-out: IC50 MCF-7
# Description: as §1, §2, §3, §4, §5
# (§6) The amount of ATP is determined using a system based on luciferase and D-luciferin resulting in light generation.
# [3] = test system: MDA-MB-231 (ER negative breast carcinoma cell line); test: CellTiter-Glo antiproliferative activity, MDA-MB-231 cell line; type: cell-based, human; conditions: 72 h exposure, in the presence of 10 nM estradiol; for IC50: Homo sapiens, MDA-MB-231, Table 1
# Description: as §1, §2, §3, §4, §5
# [4] = test system: Ishikawa (endometrial) cancer cell line; test: CellTiter-Glo antiproliferative activity, Ishikawa cell line; type: cell-based, human; conditions: 72 h exposure, in the presence of 10 nM estradiol; for IC50: Homo sapiens, Ishikawa, Table 1, read-out: IC50 Ishikawa
# Description: as §1, with “4. […]” for “4.”
# as §3, §4, §5, §6
# [5] = test system: microtubule network; conditions: Gangapuram et al. (2014); cited from earlier work
# [6] = 72 h exposure, in the presence of 10 nM estradiol
Structure (SMILES),antiproliferative activity in words [1],"IC50 [2, 6] [µg/mL]",IC50 [3] [µg/mL],melting point [°C],IC50 [4] [µg/mL],microtubule-destabilizing activity [5],"IC50 against MCF-7 cell line [2, 6] [µg/mL]",antiproliferative activity against MCF-7 cell line in words ([2]; based on IC50 value),IC50 against MDA-MB-231 cell line [3] [µg/mL],IC50 against Ishikawa cell line [4] [µg/mL]
"CCc1ccc(C(=O)NN2CCc3c(cccc3NC(C)=O)C2)cc1 [Compound 3d, N-(5-Acetamido-3,4-dihydroisoquinolin-2(1H)-yl)-4-ethylbenzamide]",completely inactive,> 33.7,> 33.7,295 to 297,> 33.7,,,,,
"CCc1ccc(C(=O)NN2CCc3cc(OC(=O)c4ccc(CC)cc4)ccc3C2C(=O)OC)cc1 (stereo not drawn) [Compound 4f, Methyl-2-(4-ethylbenzamido)-6-((4-ethylbenzoyl)oxy)-1,2,3,4-tetrahydroisoquinoline-1-carboxylate]",completely inactive,> 48.6,> 48.6,150 to 152,45.6,,,,,
CCc1ccc(C(=O)NN2CCc3ccc(O)cc3C2)cc1 [Compound 2b],more active than the lead structure (1),,,,,potent microtubule-destabilizing agent,0.2,very active,0.13,0.08
"CCc1ccc(C(=O)Nc2cccc3c2CCN(NC(=O)c2ccc(CC)cc2)C3)cc1 [Compound 3c, N,N′-(3,4-Dihydroisoquinoline-2, 5(1H)-diyl)bis(4-ethylbenzamide)]",less active,4.59,6.1,216 to 218,9.45,,,,,
"CCc1ccc(C(=O)Nc2cccc3c2CN(NC(=O)c2ccc(CC)cc2)CC3)cc1 [Compound 2j, N,N′-(3,4-dihydroisoquinoline-2,8(1H)-diyl)bis(4-ethylbenzamide)]",less active,9.35,9.71,113.2 to 116.4,2.74,,,,,
"COc1ccc(S(=O)(=O)NN2CCc3c(cccc3OS(=O)(=O)c3ccc(OC)cc3)C2)cc1 [Compound 3l, 2-(4-Methoxyphenylsulfonamido)-1,2,3,4-tetrahydroisoquinolin-5-yl-4-methoxybenzene-sulfonate]",completely inactive,> 50.5,> 50.5,182 to 183,> 50.5,,,,,
"CCc1ccc(C(=O)NN2CCc3cc(OC)c(OC)cc3C2C(C)C)cc1 (stereo not drawn) [Compound 4c, 4-Ethyl-N-(1-isopropyl-6,7-dimethoxy-3,4-dihydroisoquinolin-2(1H)-yl)benzamide]",completely inactive,> 38.2,> 38.2,162 to 163,15,,,,,
